± gives the standard deviation of the averaged measurements.
Legend:
Test in all cases: normalised percent inhibition of luminescence (vs positive and negative controls); higher = stronger inhibition
[1] = tested on: NanoLuc luciferase (NLuc)
Method: (§1)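 Concentration-response (>=11 concentrations) of metal salts on purified FLuc, NLuc or RLuc luminescence in screening (SC) or 100 mM HEPES (H) buffer; salt pre-incubated with enzyme 10 min at RT, read 10 min after substrate. Normalised percent inhibition vs plate positive (PTC-124, isradipine, BTS) and DMSO negative controls; triplicate wells.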

[2] = tested on: Renilla luciferase (RLuc)
Method: as §1

[3] = tested on: firefly luciferase (FLuc)
Method: as §1

[4] = metal salt concentration 0.0001 mM, 100 mM HEPES buffer
[5] = metal salt concentration 0.00025 mM, 100 mM HEPES buffer
[6] = metal salt concentration 0.0005 mM, 100 mM HEPES buffer
[7] = metal salt concentration 0.001 mM, 100 mM HEPES buffer
[8] = metal salt concentration 0.002 mM, screening conditions buffer
[9] = metal salt concentration 0.005 mM, screening conditions buffer
[10] = metal salt concentration 0.01 mM, screening conditions buffer
[11] = metal salt concentration 0.02 mM, screening conditions buffer
[12] = metal salt concentration 0.025 mM, 100 mM HEPES buffer
[13] = metal salt concentration 0.05 mM, 100 mM HEPES buffer
[14] = metal salt concentration 0.05 mM, screening conditions buffer
[15] = metal salt concentration 0.1 mM, 100 mM HEPES buffer
[16] = metal salt concentration 0.1 mM, screening conditions buffer
[17] = metal salt concentration 0.2 mM, screening conditions buffer
[18] = metal salt concentration 0.5 mM, 100 mM HEPES buffer
[19] = metal salt concentration 0.5 mM, screening conditions buffer
[20] = metal salt concentration 1 mM, 100 mM HEPES buffer
[21] = metal salt concentration 1 mM, screening conditions buffer
[22] = metal salt concentration 2.5 mM, 100 mM HEPES buffer
[23] = metal salt concentration 2.5 mM, screening conditions buffer
[24] = metal salt concentration 5 mM, 100 mM HEPES buffer
[25] = metal salt concentration 5 mM, screening conditions buffer

## [Cl][Sn][Cl] [tin(II) chloride]
[1]; [4]
  normalised percent inhibition: -1.04 ± 6.1%
[1]; [5]
  normalised percent inhibition: -2.95 ± 2.7%
[1]; [6]
  normalised percent inhibition: -1.03 ± 1.3%
[1]; [7]
  normalised percent inhibition: -2.16 ± 1.9%
[1]; [8]
  normalised percent inhibition: 1.6 ± 4.3%
[1]; [9]
  normalised percent inhibition: 4.64 ± 7.8%
[1]; [10]
  normalised percent inhibition: 3.42 ± 6.3%
[1]; [11]
  normalised percent inhibition: -0.105 ± 7.6%
[1]; [12]
  normalised percent inhibition: -3.24 ± 3.1%
[1]; [13]
  normalised percent inhibition: 6.37 ± 5.1%
[1]; [14]
  normalised percent inhibition: -1.81 ± 0.79%
[1]; [15]
  normalised percent inhibition: -5.15 ± 2.1%
[1]; [16]
  normalised percent inhibition: 1.62 ± 2.5%
[1]; [17]
  normalised percent inhibition: 6.52 ± 2.1%
[1]; [18]
  normalised percent inhibition: -1.5 ± 2.9%
[1]; [19]
  normalised percent inhibition: 8.42 ± 5.9%
[1]; [20]
  normalised percent inhibition: -2.37 ± 3.8%
[1]; [21]
  normalised percent inhibition: 20.2 ± 2.5%
[1]; [22]
  normalised percent inhibition: -3.02 ± 4.8%
[1]; [23]
  normalised percent inhibition: 93.83 ± 0.43%
[1]; [24]
  normalised percent inhibition: 11.3 ± 8.9%
[1]; [25]
  normalised percent inhibition: 137.11 ± 0.064%
[2]; [4]
  normalised percent inhibition: -43.6 ± 17%
[2]; [5]
  normalised percent inhibition: -34 ± 13%
[2]; [6]
  normalised percent inhibition: -29.8 ± 5.5%
[2]; [7]
  normalised percent inhibition: -28.6 ± 18%
[2]; [8]
  normalised percent inhibition: 2.49 ± 5.6%
[2]; [9]
  normalised percent inhibition: -3.55 ± 14%
[2]; [10]
  normalised percent inhibition: 13.4 ± 4.1%
[2]; [11]
  normalised percent inhibition: -6.49 ± 5.1%
[2]; [12]
  normalised percent inhibition: -15.8 ± 19%
[2]; [13]
  normalised percent inhibition: -15 ± 8.5%
[2]; [14]
  normalised percent inhibition: -5.21 ± 12%
[2]; [15]
  normalised percent inhibition: -35 ± 10%
[2]; [16]
  normalised percent inhibition: -1.32 ± 8.7%
[2]; [17]
  normalised percent inhibition: -3.23 ± 5%
[2]; [18]
  normalised percent inhibition: -38.9 ± 24%
[2]; [19]
  normalised percent inhibition: -6.09 ± 2.5%
[2]; [20]
  normalised percent inhibition: -53 ± 25%
[2]; [21]
  normalised percent inhibition: -5.29 ± 9%
[2]; [22]
  normalised percent inhibition: -45.3 ± 22%
[2]; [23]
  normalised percent inhibition: -6.8 ± 10%
[2]; [24]
  normalised percent inhibition: 79.9 ± 17%
[2]; [25]
  normalised percent inhibition: 103 ± 2.7%
[3]; [4]
  normalised percent inhibition: -37.6 ± 15%
[3]; [5]
  normalised percent inhibition: -36.8 ± 6.8%
[3]; [6]
  normalised percent inhibition: -25.8 ± 14%
[3]; [7]
  normalised percent inhibition: -45.1 ± 15%
[3]; [8]
  normalised percent inhibition: -6.84 ± 5.6%
[3]; [9]
  normalised percent inhibition: -10.8 ± 7.7%
[3]; [10]
  normalised percent inhibition: 6.44 ± 2.8%
[3]; [11]
  normalised percent inhibition: 1.32 ± 6%
[3]; [12]
  normalised percent inhibition: -26.1 ± 9.4%
[3]; [13]
  normalised percent inhibition: -13.9 ± 8.4%
[3]; [14]
  normalised percent inhibition: 19.1 ± 12%
[3]; [15]
  normalised percent inhibition: -9.51 ± 17%
[3]; [16]
  normalised percent inhibition: 56.5 ± 6.6%
[3]; [17]
  normalised percent inhibition: 99.33 ± 0.51%
[3]; [18]
  normalised percent inhibition: 11.7 ± 4.4%
[3]; [19]
  normalised percent inhibition: 100.6 ± 0.52%
[3]; [20]
  normalised percent inhibition: 37.6 ± 7.7%
[3]; [21]
  normalised percent inhibition: 100.2 ± 0.65%
[3]; [22]
  normalised percent inhibition: 63.9 ± 6.3%
[3]; [23]
  normalised percent inhibition: 100.4 ± 0.65%
[3]; [24]
  normalised percent inhibition: 100.7 ± 0.19%
[3]; [25]
  normalised percent inhibition: 100.5 ± 0.69%

## O=[N+]([O-])[O-].O=[N+]([O-])[O-].[Zn+2] [zinc nitrate]
[1]; [8]
  normalised percent inhibition: 0.728 ± 3.3%
[1]; [9]
  normalised percent inhibition: -0.897 ± 5.4%
[1]; [10]
  normalised percent inhibition: 10.7 ± 4.8%
[1]; [11]
  normalised percent inhibition: 7.25 ± 7.2%
[1]; [14]
  normalised percent inhibition: 35.8 ± 7%
[1]; [16]
  normalised percent inhibition: 66 ± 15%
[1]; [17]
  normalised percent inhibition: 78.9 ± 2.5%
[1]; [19]
  normalised percent inhibition: 77 ± 14%
[1]; [21]
  normalised percent inhibition: 89 ± 11%
[1]; [23]
  normalised percent inhibition: 111 ± 26%
[1]; [25]
  normalised percent inhibition: 126 ± 30%
[2]; [8]
  normalised percent inhibition: -5.83 ± 5.5%
[2]; [9]
  normalised percent inhibition: -7.07 ± 11%
[2]; [10]
  normalised percent inhibition: -4.95 ± 6.5%
[2]; [11]
  normalised percent inhibition: -5.53 ± 0.89%
[2]; [14]
  normalised percent inhibition: -2.83 ± 13%
[2]; [16]
  normalised percent inhibition: -8.31 ± 7.2%
[2]; [17]
  normalised percent inhibition: -2.75 ± 4.6%
[2]; [19]
  normalised percent inhibition: -0.599 ± 11%
[2]; [21]
  normalised percent inhibition: 8.71 ± 11%
[2]; [23]
  normalised percent inhibition: -1 ± 8.9%
[2]; [25]
  normalised percent inhibition: 85.5 ± 9.5%
[3]; metal salt concentration 10 nM, 100 mM HEPES buffer
  normalised percent inhibition: 16.5 ± 1.9%
[3]; metal salt concentration 50 nM, 100 mM HEPES buffer
  normalised percent inhibition: -0.254 ± 9.7%
[3]; [4]
  normalised percent inhibition: -1.38 ± 27%
[3]; [5]
  normalised percent inhibition: 5.03 ± 18%
[3]; [6]
  normalised percent inhibition: 35.7 ± 11%
[3]; [7]
  normalised percent inhibition: 47.4 ± 13%
[3]; [8]
  normalised percent inhibition: 21.1 ± 28%
[3]; [9]
  normalised percent inhibition: 16.4 ± 15%
[3]; [10]
  normalised percent inhibition: 20.5 ± 20%
[3]; [11]
  normalised percent inhibition: 17.9 ± 15%
[3]; [12]
  normalised percent inhibition: 86.7 ± 4.5%
[3]; [13]
  normalised percent inhibition: 92.6 ± 3.1%
[3]; [14]
  normalised percent inhibition: 11.7 ± 13%
[3]; [15]
  normalised percent inhibition: 96.3 ± 1.4%
[3]; [16]
  normalised percent inhibition: 28.6 ± 18%
[3]; [17]
  normalised percent inhibition: 15 ± 18%
[3]; [18]
  normalised percent inhibition: 100.2 ± 0.33%
[3]; [19]
  normalised percent inhibition: 29.1 ± 5.4%
[3]; [20]
  normalised percent inhibition: 100.1 ± 0.51%
[3]; [21]
  normalised percent inhibition: 46.4 ± 13%
[3]; [22]
  normalised percent inhibition: 100.4 ± 0.27%
[3]; [23]
  normalised percent inhibition: 100.6 ± 1%
[3]; [24]
  normalised percent inhibition: 100.2 ± 0.31%
[3]; [25]
  normalised percent inhibition: 100.2 ± 0.28%

Source: the supplement of paper PMC11628255, “Interference of metal ions on the bioluminescent signal of firefly, Renilla, and NanoLuc luciferases in high-throughput screening assays” (Frontiers in Chemistry, 2024)
